According to ChEMBL document CHEMBL4393659, “Insights into the chemistry and therapeutic potential of furanones: A versatile pharmacophore” (Eur J Med Chem, 2019):
≈ marks a conversion by molar mass, not a printed value.

Columns and labels:
Salmonella typhimurium = assay: Inhibition of biofilm formation in Salmonella enterica subsp. enterica serovar Typhimurium 14028S incubated for 48 hrs by crystal violet staining based assay; assay type: functional, organism-based
Staphylococcus aureus = assay: Antibacterial activity against Staphylococcus aureus; assay type: functional
Escherichia coli [1] = assay: Antibacterial activity against Escherichia coli; assay type: functional
Rattus norvegicus [2] = assay: Antiinflammatory activity in Wistar rat assessed as inhibition of carrageenan-induced edema measured upto 4 hrs; assay type: functional
[3] = tested on: Mycobacterium tuberculosis; assay: Antimycobacterial activity against Mycobacterium tuberculosis H37Rv; assay type: functional, organism-based
Plasmodium falciparum = assay: Antimalarial activity against Plasmodium falciparum infected in human blood assessed as reduction in cell viability incubated for 72 hrs by Giemsa stain based assay; assay type: functional
Escherichia coli [4] = assay: Antibacterial activity against Escherichia coli assessed as inhibition zone incubated for 24 hrs by disk diffusion method relative to control; assay type: functional
[5] = Ulcerogenicity in Wistar rat assessed as gastric lesions by measuring ulcer severity index at 60 mg/kg , po measured after 17 hrs relative to ibuprofen; assay type: toxicity, organism-based; details: in vivo
Rattus norvegicus [6] = assay: Antiinflammatory activity in po dosed rat; assay type: functional
Rattus norvegicus [7] = organism: Rattus norvegicus; assay: Antiarthritic activity in adjuvant-induced Sprague-Dawley rat; assay type: functional
Rattus norvegicus [8] = assay: Antiinflammatory activity in Sprague-Dawley rat assessed as inhibition of carrageenan-induced paw edema at 3 mg/kg , po relative to control; assay type: functional
Phospholipase A2 = Phospholipase A2 (Apis mellifera, UniProt P00630); assay: Inhibition of bee venom phospholipase A2 preincubated for 1 hr followed by addition of phosphotidylcholine and 1-palmitoyl-2-(1-14C) palmitoyl further incubated for 10 mins and measured after 15 secs by scintillation counting method
Rattus norvegicus [9] = assay: Antiinflammatory activity in po dosed Sprague-Dawley rat assessed as inhibition of carrageenan-induced paw edema incubated for one hour followed by carrageenan addition and measured after 3 hrs; assay type: functional
Rattus norvegicus [10] = assay: Antiinflammatory activity in Wistar albino rat assessed as inhibition of carrageenan-induced paw edema at 20 mg/kg , po incubated for 30 mins followed by carrageenan addition and measured after 3 hrs by plethysmometry relative to control; assay type: functional
Mus musculus [11] = assay: Analgesic activity in Swiss albino mouse assessed as inhibition of acetic acid induced writhing at 20 mg/kg , po incubated for 3 hrs followed by acetic acid administered and observed for 5 to 15 mins relative to control; assay type: functional
[12] = Acute toxicity in Swiss albino mouse assessed as reduction in mortality of animal at 200 to 800 mg/kg , ip observed for 8 days; assay type: organism-based; details: in vivo
Candida albicans = assay: Antifungal activity against Candida albicans ATCC 90028 assessed as reduction in fungal cell viability measured after 24 and 48 hrs by spectrophotometry; assay type: functional
[13] = target: GABA-A receptor; alpha-1/beta-2/gamma-2 (Homo sapiens) (UniProt P14867+P47870+P18507); assay: Positive allosteric modulation of recombinant GABAA alpha1beta2gamma2 (unknown origin) expressed in Xenopus laevis oocytes assessed as increase GABA-stimulated current amplitude at 200 uM by electrophysiological two-electrode voltage clamp method; assay type: cell-based
[14] = target: Prostaglandin G/H synthase 2 (Homo sapiens, UniProt P35354); assay: Inhibition of recombinant human COX2 expressed in baculovirus infected Sf9 cells
Aspergillus fumigatus = assay: Antifungal activity against Aspergillus fumigatus assessed as reduction in fungal cell viability measured after 24 and 48 hrs by broth microdilution method; assay type: functional
Rattus norvegicus [15] = assay: Antiinflammatory activity in albino rat assessed as inhibition of carrageenan-induced paw edema by measuring mercury displacement at 20 mg/kg , po relative to control; assay type: functional
[16] = target: GABA-A receptor; anion channel; assay: Displacement of [35S]TBPS from GABAA (unknown origin) incubated for 90 mins by scintillation counting method; assay type: protein-complex assay, Homo sapiens
Mus musculus [17] = assay: Anticonvulsant activity in ip dosed CF-1 mouse assessed as protection against PTZ-induced seizures measured after 30 mins […]; assay type: functional

Sequence of Prostaglandin G/H synthase 2 (P35354 whole entry): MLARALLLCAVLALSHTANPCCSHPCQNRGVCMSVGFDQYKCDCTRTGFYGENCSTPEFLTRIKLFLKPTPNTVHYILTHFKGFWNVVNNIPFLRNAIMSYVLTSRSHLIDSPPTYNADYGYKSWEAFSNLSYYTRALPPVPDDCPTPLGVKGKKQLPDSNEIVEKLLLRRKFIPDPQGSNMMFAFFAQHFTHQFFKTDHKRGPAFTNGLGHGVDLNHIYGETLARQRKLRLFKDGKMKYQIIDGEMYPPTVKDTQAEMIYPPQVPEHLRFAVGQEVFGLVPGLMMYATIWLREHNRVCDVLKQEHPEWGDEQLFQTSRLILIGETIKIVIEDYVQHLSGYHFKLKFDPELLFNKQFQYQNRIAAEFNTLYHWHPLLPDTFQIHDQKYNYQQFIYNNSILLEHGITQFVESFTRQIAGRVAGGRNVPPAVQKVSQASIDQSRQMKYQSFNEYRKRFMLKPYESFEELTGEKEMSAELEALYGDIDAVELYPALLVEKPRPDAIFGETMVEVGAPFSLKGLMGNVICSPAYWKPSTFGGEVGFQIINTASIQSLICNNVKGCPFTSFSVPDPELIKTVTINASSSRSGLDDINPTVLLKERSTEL
Sequence of Phospholipase A2 (P00630 whole entry): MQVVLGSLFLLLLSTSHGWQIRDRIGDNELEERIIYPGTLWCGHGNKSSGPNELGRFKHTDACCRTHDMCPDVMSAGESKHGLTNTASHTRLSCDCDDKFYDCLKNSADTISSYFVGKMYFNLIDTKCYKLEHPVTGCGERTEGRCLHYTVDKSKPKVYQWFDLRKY

Compound: O=C1C=C/C(=C/Br)O1
- IC50 (Salmonella typhimurium): 15 µM

Compound: C/C(C#N)=C1/OC(c2ccc(C)cc2)=C(Cl)C1=O
- MIC (Staphylococcus aureus): 15.6 µg/mL (≈ 60.1 µM)
- MIC (Escherichia coli [1]): 62.5 µg/mL (≈ 241 µM)

Compound: O=C1OC(c2ccc3ccccc3c2)=C/C1=C\c1cc2ccccc2nc1Cl
- inhibition (INH) (Rattus norvegicus [2]): 56 - 63%

Compound: COc1cc(/C=C2\C=C(c3cccc(Br)c3)OC2=O)ccc1OC(C)=O
- IC50 [3]: 5.05 µg/mL (≈ 12.2 µM)
- IC90 [3]: 7.85 µg/mL (≈ 18.9 µM)

Compound: COc1cccc2cc(/C=C3/CC(c4ccc(C)cc4C)OC3=O)c(Cl)nc12 (configuration not stated)
- MIC (Plasmodium falciparum): 0.5 to 0.72 µg/mL (≈ 1.27 to 1.83 µM)

Compound: COc1ccc(C2=C/C(=C/c3ccc(N(C)C)cc3)C(=O)O2)cc1
- inhibition zone (IZ) (Escherichia coli [4]): 16 mm

Compound: O=C1C=C(c2ccc(Cl)cc2)O/C1=N\C12CC3CC(CC(C3)C1)C2
- MIC (Escherichia coli [1]): 7.8 µg/mL (≈ 22.8 µM)

Compound: O=C1C=C(Br)/C(=C/Br)O1
- IC50 (Salmonella typhimurium): 10 µM

Compound: CC(C)Cc1ccc(C2=C/C(=C\c3ccc(F)cc3)C(=O)O2)cc1
- UI [5]: 0.1

Compound: CC1(O)OC(=O)C(c2ccccc2)=C1c1ccc(S(C)(=O)=O)cc1 (configuration not stated)
- ED50 (Rattus norvegicus [6]): 1.5 mg/kg

Compound: CC1(C)OC(c2ccc(S(C)(=O)=O)cc2)=C(c2cccc(C(F)(F)F)c2)C1=O
- ED50 (Rattus norvegicus [7]): 0.06 mg/kg/day
- inhibition in vivo at 3 mg/kg (Rattus norvegicus [8]): 32%

Compound: O=C1OC(c2ccc(-c3ccccc3)cc2)=C/C1=C\c1cc2ccc([N+](=O)[O-])cc2nc1Cl
- inhibition (INH) (Rattus norvegicus [2]): 56 - 63%

Compound: CC(C)(C)C(=O)OC(CCCCCCCCCCCCC(OC(=O)C(C)(C)C)C1=CC(=O)OC1OC(=O)Nc1ccccc1)C1=CC(=O)OC1OC(=O)Nc1ccccc1 (configuration not stated)
- IC50 (Phospholipase A2): > 1 µM

Compound: CC1(C)OC(=O)C(Oc2ccc(Br)cn2)=C1c1ccc(S(C)(=O)=O)cc1
- ED50 (Rattus norvegicus [9]): 0.86 mg/kg
- ED50 (Rattus norvegicus [7]): 0.2 mg/kg

Compound: O=C1OC(c2ccc3ccccc3c2)=C/C1=C\c1ccc([N+](=O)[O-])cc1
- inhibition in vivo at 20 mg/kg (Rattus norvegicus [10]): 74.8 to 89.7%
- inhibition in vivo at 20 mg/kg (Mus musculus [11]): 70 to 74%

Compound: O=C1O[C@H]([C@@H](O)CO)C(O)=C1O [ASCORBIC ACID]
- LD50 at 192 h [12]: > 800 mg/kg

Compound: CC(=O)OCC1C=C(c2ccc(Br)cc2)C(=O)O1 (configuration not stated)
- MIC (Candida albicans): 0.5 µg/mL (≈ 1.61 µM)

Compound: O=C1C(Br)=C(c2ccccc2)O/C1=N\C12CC3CC(CC(C3)C1)C2
- MIC (Escherichia coli [1]): 15.6 µg/mL (≈ 40.4 µM)

Compound: Cc1ccc2cc(/C=C3\C=C(c4ccc(-c5ccccc5)cc4)OC3=O)c(Cl)nc2c1
- inhibition (INH) (Rattus norvegicus [2]): 56 - 63%

Compound: COc1ccc(/C=C2\C=C(c3ccc4ccccc4c3)OC2=O)cc1
- inhibition in vivo at 20 mg/kg (Rattus norvegicus [10]): 74.8 to 89.7%
- inhibition in vivo at 20 mg/kg (Mus musculus [11]): 70 to 74%

Compound: O=C1OC(c2ccc(-c3ccccc3)cc2)=C/C1=C\c1cc2ccccc2nc1Cl
- inhibition (INH) (Rattus norvegicus [2]): 56 - 63%

Compound: CCCC1(CCC)C(=O)OCC1NC(=O)OCC (configuration not stated)
- Activity [13]: 426%

Compound: Cc1ccc2c(c1)C1=C(c3ccc(S(C)(=O)=O)cc3)C(=O)OC1CC2 (configuration not stated)
- IC50 [14]: 0.5 to 0.6 µM

Compound: C[C@@H]1[C@H](O)[C@@H](C)/C=C/C=C/C=C/C=C/C=C/C=C/C=C/[C@H](O[C@@H]2O[C@H](C)[C@@H](O)[C@H](N)[C@@H]2O)C[C@@H]2O[C@](O)(C[C@@H](O)C[C@@H](O)[C@H](O)CC[C@@H](O)C[C@@H](O)CC(=O)O[C@H]1C)C[C@H](O)[C@H]2C(=O)O [AMPHOTERICIN B]
- MIC (Aspergillus fumigatus): 0.5 µg/mL (≈ 0.541 µM)

Compound: COc1ccc(C2=C/C(=C/c3ccc(F)cc3)C(=O)O2)cc1
- inhibition zone (IZ) (Escherichia coli [4]): 14 mm

Compound: COc1cc(C2OC(=O)CC2C(C)=O)cc(OC)c1O (configuration not stated)
- LD50 at 192 h [12]: 200 mg/kg

Compound: COc1cc(/C=C2/C=C(c3ccc(C)cc3)OC2=O)cc(OC)c1OC
- inhibition in vivo at 20 mg/kg (Rattus norvegicus [15]): 45.2%

Compound: CCC1(C)CC(C)(C(F)(F)F)OC1=O (configuration not stated)
- IC50 [16]: 224 µM
- CD50 (Mus musculus [17]): 47 mg/kg

Compound: COc1cccc2cc(/C=C3/CC(c4ccc(Cl)c(Cl)c4)OC3=O)c(Cl)nc12 (configuration not stated)
- MIC (Plasmodium falciparum): 0.5 to 0.72 µg/mL (≈ 1.15 to 1.66 µM)

Compound: C=CCOC(=O)NC1COC(=O)C1(CCC)CCC (configuration not stated)
- Activity [13]: 420%
